According to US10227331B2 (priority 2015, dated 2019):
pIC50: −log10 of the molar value. Like-named read-outs stand apart in the source and are kept apart here.

Key:
[1] = tested on: P. aeruginosa expressing IMP-1, efflux− (MB9799); test: Efflux: concentration of MBL inhibitor which restores susceptibility to imipenem; type: cell-based, Pseudomonas aeruginosa; settings: imipenem at 2 μg/mL, in the presence of a class A, C, D serine β-lactamase inhibitor closely related to relebactam
From the text: (§1) The strain background is Pseudomonas aeruginosa PAO1.

[2] = tested on: Serratia marcescens expressing IMP-1 (CL5741); type: cell-based; settings: IMP-1 (CL5741), with imipenem 1 μg/ml, 95% inhibition of bacterial growth
In short: (§2)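 Colonies from overnight 35 °C blood-agar cultures were suspended in saline, diluted 1:100 into 1.1× CAMHB and exposed to test compound with or without imipenem at 1 μg/ml. After 22–24 h at 35 °C, absorbance was read to find the concentration restoring imipenem susceptibility.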

[3] = tested on: Escherichia coli expressing NDM-1 (CLB30005, CLB30016); type: cell-based; settings: NDM-1 (CLB30016), with imipenem 1 μg/ml, 95% inhibition of bacterial growth
In short: as §2

[4] = tested on: Klebsiella pneumoniae expressing VIM-1 (IHMA599644); type: cell-based; settings: VIM-1 (IHMA599644), with imipenem 1 μg/ml, 95% inhibition of bacterial growth
In short: as §2

[5] = biological target: VIM-1 (Pseudomonas aeruginosa (strain ATCC 15692 / DSM 22644 / CIP 104116 / JCM 14847 / LMG 12228 / 1C / PRS 101 / PAO1), UniProt A0A0F7KYQ8); test: biochemical; settings: CCF2-FA substrate, 2 hours at 25° C
In short: (§3)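 Inhibitor was mixed with the metallo-β-lactamase and CCF2-FA. After 2 hours at 25° C, fluorescence of the coumarin–fluorescein cephalosporin substrate was read. IC50 was calculated with a 4-parameter fit.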

[6] = biological target: NDM-1 (Klebsiella pneumoniae, UniProt C7C422); test: biochemical; type: biochemical; settings: CCF2-FA substrate, 2 hours at 25° C; read-out: NDM-1 IC50
In short: as §3

[7] = biological target: IMP-1 (Serratia marcescens, UniProt P52699); test: biochemical; type: biochemical
In short: as §3

[8] = tested on: P. aeruginosa expressing IMP-1, efflux+ (MB9798); type: cell-based, Pseudomonas aeruginosa; settings: for P. aeruginosa expressing IMP-1, efflux+ (MB9798) MITC95: imipenem at 2 μg/mL, in the presence of a class A, C, D serine β-lactamase inhibitor closely related to relebactam; for Efflux ratio: ratio MITC95 PA_9798/MITC95 PA_9799
From the text: as §1

[9] = CCF2-FA substrate, 2 hours at 25° C, read-out: IMP-1 IC50

Sequence of NDM-1 (C7C422 whole entry, looked up, species assumed): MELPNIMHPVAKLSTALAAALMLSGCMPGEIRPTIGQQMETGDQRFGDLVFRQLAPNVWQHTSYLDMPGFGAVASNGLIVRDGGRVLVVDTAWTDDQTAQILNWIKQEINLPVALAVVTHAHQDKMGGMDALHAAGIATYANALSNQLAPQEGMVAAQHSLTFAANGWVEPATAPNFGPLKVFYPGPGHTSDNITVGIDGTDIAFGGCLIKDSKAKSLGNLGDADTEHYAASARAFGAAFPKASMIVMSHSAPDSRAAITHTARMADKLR
Sequence of IMP-1 (P52699 whole entry, looked up, species assumed): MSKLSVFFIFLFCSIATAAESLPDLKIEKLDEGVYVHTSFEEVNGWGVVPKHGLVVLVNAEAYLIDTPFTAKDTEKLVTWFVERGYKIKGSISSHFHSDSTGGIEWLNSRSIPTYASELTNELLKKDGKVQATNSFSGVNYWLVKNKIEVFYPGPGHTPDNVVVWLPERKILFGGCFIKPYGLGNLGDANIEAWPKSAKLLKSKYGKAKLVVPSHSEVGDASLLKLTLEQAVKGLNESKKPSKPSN

Row | SMILES | P. aeruginosa expressing IMP-1, efflux− (MB9799) MITC95 [1] [µM] | Serratia marcescens MITC95 [2] [µM] | Escherichia coli MITC95 [3] [µM] | Klebsiella pneumoniae MITC95 [4] [µM] | pIC50 [5] | pIC50 [6] | pIC50 [7] | P. aeruginosa expressing IMP-1, efflux+ (MB9798) MITC95 [8] [µM] | Efflux ratio [8] | pIC50 [7, 9]
1 | Nc1nc2c(-c3ccc(S(=O)(=O)C4CCNCC4)c(S(N)(=O)=O)c3-c3nn[nH]n3)cccc2s1 [Example 315, 3-(2-aminobenzo[d]thiazol-4-yl)-6-(piperidin-4-ylsulfonyl)-2-(2H-tetrazol-5-yl)benzenesulfonamide] | 0.7813 | 1.563 | 1.563 | 3.125 | 9.60 | 9.95 | 9.60 | 0.7813 | 1.00 | 
2 | Nc1nc2c(-c3ccc(S(=O)(=O)C4CCNCC4)c(S(N)(=O)=O)c3-c3nn[nH]n3)cccc2[s+]1[O-] (stereo not drawn) [Example 316, 3-(2-amino-1-oxidobenzo[d]thiazol-4-yl)-6-(piperidin-4-ylsulfonyl)-2-(2H-tetrazol-5-yl)benzenesulfonamide] | 6.25 | 12.5 | 6.25 | 12.5 | 9.11 | 9.55 |  | 6.25 | 1.00 | 9.08
3 | Nc1nc2c(-c3ccc(S(=O)(=O)C4CNC4)c(S(N)(=O)=O)c3-c3nn[nH]n3)cccc2s1 [Example 317, 3-(2-aminobenzo[d]thiazol-4-yl)-6-(azetidin-3-ylsulfonyl)-2-(2H-tetrazol-5-yl)benzenesulfonamide] | 0.7813 | 0.7813 | 1.172 | 1.563 | 9.72 | 10.51 |  | 0.7813 | 1.00 | 9.64
4 | NS(=O)(=O)c1c(S(=O)(=O)C2CCNCC2)ccc(-c2cccc3c2CNC3=O)c1-c1nn[nH]n1 [Example 318, 3-(1-oxoisoindolin-4-yl)-6-(piperidin-4-ylsulfonyl)-2-(2H-tetrazol-5-yl)benzenesulfonamide] | 6.25 | 25 | 12.5 | 12.5 | 9.29 | 8.71 |  | 25 | 4.00 | 7.57
5 | Nc1nc2c(-c3ccc(S(=O)(=O)CCO)c(S(N)(=O)=O)c3-c3nn[nH]n3)cccc2c[n+]1[O-] [Example 319, 2-amino-8-(4-((2-hydroxyethyl)sulfonyl)-3-sulfamoyl-2-(2H-tetrazol-5-yl)phenyl)quinazoline 3-oxide] | 12.5 | 25 | 100 | 50 | 9.39 | 9.71 |  | 25 | 2.00 | 8.72
6 | NS(=O)(=O)c1c(S(=O)(=O)CCO)ccc(-c2cccc3c2ccc[n+]3[O-])c1-c1nn[nH]n1 [Example 320, 5-(4-((2-hydroxyethyl)sulfonyl)-3-sulfamoyl-2-(2H-tetrazol-5-yl)phenyl)quinoline 1-oxide] | 6.25 | 25 | 50 | 12.5 | 9.68 | 9.03 |  | 25 | 4.00 | 8.97
7 | NCCS(=O)(=O)c1ccc(-c2ccc(N)nc2)c(-c2nn[nH]n2)c1S(N)(=O)=O [Example 321, 6-((2-aminoethyl)sulfonyl)-3-(6-aminopyridin-3-yl)-2-(2H-tetrazol-5-yl) benzenesulfonamide] | 0.6406 | 0.4453 | 0.125 | 1.281 | 9.00 | 8.86 |  | 1.781 | 2.78 | 9.02
8 | NCCS(=O)(=O)c1ccc(-c2ccc(C3CCNCC3)cc2)c(-c2nn[nH]n2)c1S(N)(=O)=O [Example 322, 4-((2-aminoethyl)sulfonyl)-4′-(piperidin-4-yl)-2-(2H-tetrazol-5-yl)-[1,1′-biphenyl]-3-sulfonamide] | 0.7813 | 1.563 | 1.563 | 3.125 | 9.69 | 9.14 |  | 1.563 | 2.00 | 9.77
9 | NCCS(=O)(=O)c1ccc(-c2cccc3cc(C(N)=O)[nH]c23)c(-c2nn[nH]n2)c1S(N)(=O)=O [Example 323, 7-(4-((2-aminoethyl)sulfonyl)-3-sulfamoyl-2-(2H-tetrazol-5-yl)phenyl)-1H-indole-2-carboxamide] | 0.7813 | 1.563 | 3.125 | 1.563 | 9.67 | 10.29 |  | 0.7813 | 1.00 | 9.84
10 | NCCS(=O)(=O)c1ccc(-c2cccc3ncccc23)c(-c2nn[nH]n2)c1S(N)(=O)=O [Example 324, 6-((2-aminoethyl)sulfonyl)-3-(quinolin-5-yl)-2-(2H-tetrazol-5-yl) benzenesulfonamide] | 0.7813 | 1.563 | 1.563 | 3.125 | 9.86 | 9.65 |  | 6.25 | 8.00 | 9.26
11 | CS(=O)(=O)Nc1nc2c(-c3ccc(S(=O)(=O)C4CCNCC4)c(S(N)(=O)=O)c3-c3nn[nH]n3)cccc2s1 [Example 325, 3-(2-(methylsulfonamido)benzo[d]thiazol-4-yl)-6-(piperidin-4-ylsulfonyl)-2-(2H-tetrazol-5-yl)benzenesulfonamide] | 6.25 | 12.5 | 12.5 | 25 | 9.46 | 10.14 |  | 6.25 | 1.00 | 9.62
12 | CN(C)CCS(=O)(=O)c1ccc(-c2cccc3sc(N)nc23)c(-c2nn[nH]n2)c1S(N)(=O)=O [Example 326, 3-(2-aminobenzo[d]thiazol-4-yl)-6-((2-(dimethylamino)ethyl)sulfonyl)-2-(2H-tetrazol-5-yl)benzenesulfonamide] | 1.563 | 3.125 | 3.125 | 6.25 | 9.78 | 10.12 |  | 1.563 | 1.00 | 9.60
